Data on 3 substances can be found in patent US5580852A, “Derivatives of tachyplesin having inhibitory activity towards plant pathogenic fungi” (Pioneer Hi-Bred International, Inc., priority 1993, dated 1996).

What all share (type): cell-based
One assay concerns Aspergillus flavus. Nature of the assay: Antifungal testing, MIC and MCIC. Particulars: comparison table.
The subject of the next assay is Fusarium moniliforme. Nature of the assay: Antifungal testing, MIC and MCIC. To be noted: comparison table.
In the next assay the test system is E. coli. To be noted: bacterial host; statement in words.

For CMIII, the “MIC AFL” value is 60 µg/mL against Aspergillus flavus (known antimicrobial compounds) and 15 µM in the assay on Aspergillus flavus (value in parentheses). Also, the “MIC FMO” value in the assay with Fusarium moniliforme (known antimicrobial compounds) was determined as 18.2 µg/mL; with Fusarium moniliforme (value in parentheses), 4.6 µM.

As for “KWCFRVCYRGICYRRCR [tachyplesin, natural tachyplesin, small peptide originally isolated from the hemocytes of the horseshoe crab, Tachypleus tridentatus]”, the “MIC AFL” value with Aspergillus flavus (known antimicrobial compounds) amounted to 6.25 µg/mL; in the assay with Aspergillus flavus (value in parentheses), 2.8 µM. In addition, the “MIC FMO” value in the assay on Fusarium moniliforme (known antimicrobial compounds) is 6.25 µg/mL; with Fusarium moniliforme (value in parentheses), 2.8 µM. The “toxicity to E. coli” value with E. coli is “significant toxicity”.

Regarding hordothionin, the figures for the “MIC AFL” value in the assay on Aspergillus flavus (known antimicrobial compounds) and in the assay with Aspergillus flavus (value in parentheses) were 15 µg/mL and 3 µM, respectively. The “MIC FMO” value is 45 µg/mL in the assay with Fusarium moniliforme (known antimicrobial compounds) and 9 µM in the assay on Fusarium moniliforme (value in parentheses).
